Experimental data taken from patent US10647672B2, “Modulators of cell adhesion, methods and compositions therefor” (Zonula Incorporated, priority 2017, dated 2020).

Columns and labels:
[1] = test system: cerebellar neurons on 3T3 fibroblasts that express N-cadherin; test: neurite outgrowth assay; format: cell-based, mouse; settings: 10 micromolar; 18 hours culture
Description: Within a representative neurite outgrowth assay, neurons are cultured on a monolayer of cells (e.g., 3T3 fibroblasts) that express N-cadherin. […] For example, neurons can be cultured on monolayers of 3T3 cells transfected with cDNA encoding N-cadherin essentially as described by Doherty, P. and Walsh, F. S., Curr. Op. Neurobiol. 4:49-55, 1994; Williams, E. J., et al., Neuron 13:583-594, 1994; Hall, H., et al., Cell Adhesion and Commun. 3:441-450, 1996; Doherty, P. and Walsh, F. S., Mol. Cell. Neurosci. 8:99-111, 1994; and Safell, J. L., et al., Neuron 18:231-242, 1997. Briefly, monolayers of control 3T3 fibroblasts and 3T3 fibroblasts that express N-cadherin are established by overnight culture of 80,000 cells in individual wells of an 8-chamber well tissue culture slide. 3000 cerebellar neurons isolated from post-natal day 3 mouse brains are cultured for 18 hours on the various monolayers in control media (SATO/2% FCS), or media supplemented with various concentrations of the modulating agent. The cultures are then fixed and stained for GAP43 which specifically binds to the neurons and their neurites. The length of the longest neurite on each GAP43 positive neuron is measured by computer assisted morphometry.

[2] = test system: 3D spheroid N-cadherin mouse fibroblast (LN5) cells; test: hanging drop 3D spheroid cell culture assay; format: cell-based; settings: hanging drops incubated 48 h
Description: In these experiments, a total of 2×10^6 originally noncohesive embryonic mouse L929 fibroblasts (L cells) were transfected by electroporation in 400 μl transfection medium (RPMI 1640, 1% dextrose, 1 mM β-mercaptoethanol) with 40 μg pMiwcN chicken N-cadherin expression vector (Miyatani, S., et al., Science, 1989, 245, 631-635; Fujimori T., et al., Development, 1990, 110. 97-104). Neomycin resistance (pwlneo, GIBCO) was included for G418 selection. Transfected cells were diluted 1/100 and placed in medium containing 800 μg/ml G418 (GIBCO). Resistant cells were grown to confluence, detached by trypsin/Ca^2+ treatment, and stained with an anti-chicken N-cadherin antibody (NCD2, Zymed) on ice for 45 min. After several washes in Hanks' balanced salt solution, cells were mixed with a fluorescein isothiocyanate-conjugated secondary antibody and placed on ice for 30 min. N-cadherin-expressing cells were then autocloned into 96-well plates by using the CloneCyt Integrated Deposition System (Becton-Dickinson Immunocytometry Systems). Positive clones were reanalyzed by FACS and the L cell line LN5 was propagated for these studies.
The 3D spheroids were generated as follows. Cells were removed from near-confluent plates with TC (0.05% trypsin and 2 mM Ca^2+ in Hank's solution for 5-10 minutes), washed once with 1 mL 4° C. Hank's solution, and suspended at a concentration of 2.5×10^6 cells/ml in complete MEM supplemented with 2 mM CaCl2 and varying concentrations of N-cadherin antagonists (Crocus Laboratories, Montreal, Quebec, Canada). The antagonists were compound 15 (MW=499.43) and compound 16 (MW=499.43). Stock solutions of the antagonists were prepared by dissolving the antagonists in DMSO at concentrations of 30 mM. Controls were made by suspending the cells as described above in the absence of antagonists with only the respective amount of DMSO added. Drops of the cell suspensions (10 microliters each) were deposited on the underside of a 10 cm tissue culture dish lid. The lid was then inverted and placed on dish containing 5 ml of PBS for hydration. Hanging drops were incubated under tissue culture conditions for 48 h, allowing the cells to coalesce at the base of the droplets and to form multi-layer aggregates. The tissue culture dish lid was then removed and the medium was gently aspirated. Aggregates (N=10-20) where then photographed under 4× lens and cell area was analyzed using ImageJ. Statistical differences were determined using ANOVA and Tukey's multiple comparison test.
Each of the antagonists tested from Crocus Laboratories contained cadherin antagonist properties at different potency levels. We determined the approximate minimum concentration needed for an anti-adhesion dose response on 3D spheroid N-cadherin mouse fibroblast (LN5) cells. […]

For COc1ccc(OC[C@@H](O)CNC2CCN(C[C@H](O)COc3ccc(Cl)c(Cl)c3)CC2)cc1 [Compound 15, (S)-1-(3,4-Dichlorophenoxy)-3-(4-((S)-2-hydroxy-3-(4-methoxyphenoxy)propylamino)piperidin-1-yl)propan-2-ol], the “decrease in the mean neurite length relative to the length in the absence of modulating agent” value [1] was “at least 50%”, the “concentration at which complete disruption occurred” value [2] was 75 µM and the “minimum concentration required to observe cohesion disruption” value [2] was 40 µM.
